US12227512B2, “Benzimidazoles and methods of using same” (priority 2019, dated 2025)
pEC50: −log10 of the molar value.

Assays:
[1] = Mouse PK evaluation, plasma, IV; details: CD-1 mice; for concentration at 0.083 h / concentration at 0.25 h / concentration at 0.5 h / concentration at 1 h / concentration at 2 h / concentration at 4 h / concentration at 8 h / concentration at 24 h / AUC(0-inf) / AUC(0-t) / MRT inf / half-life: CD-1, mouse, plasma, 3 mg/kg; for concentration at 0.083 h / concentration at 0.25 h / concentration at 0.5 h / concentration at 1 h / concentration at 2 h / concentration at 4 h / concentration at 8 h / concentration at 24 h: intravenous, Plasma concentration; for AUC(0-inf) / AUC(0-t) / MRT inf / half-life: iv; for AUC(0-inf): AUCInf; for AUC(0-t): AUClast; for MRT inf: MRTInf_obs
[2] = Neutral Red (Toxicity) of the antiviral screening; details: human, Huh7 cells
[3] = Neutral Red (Toxicity) of the antiviral screening; details: African green monkey, Vero 76 cells
Vero 76 = test: Neutral Red (Toxicity) of the antiviral screening; details: Assay No. 3; Neutral Red (Cytopathic effect/Toxicity) line
[4] = system: Dengue virus 2 New Guinea C; test: In vitro antiviral screening, Visual (Virus yield reduction); details: Huh7; for SI90: Visual (Virus yield reduction)/Neutral Red (Toxicity); for EC90: Dengue virus, Visual (Virus yield reduction)
Zika MR766 [5] = test: as above; details: Vero 76
[6] = system: Dengue virus 2 New Guinea C; test: In vitro antiviral screening, Neutral Red (Cytopathic effect); details: Huh7; for SI50: Neutral Red (Cytopathic effect/Toxicity); for pEC50: Dengue virus, Neutral Red (Cytopathic effect)
Zika MR766 [7] = test: as above; details: Vero 76

Q: What does the source list for CN(C)CCCn1c(N)nc2ccc3c(c21)CC(CO)O3 (centres unmarked) [DD041]?
A: AUC_%Extrap_obs, Mean ([1]; 3 mg/kg IV): 1.88%; AUC_%Extrap_obs, Mouse 1 ([1]; 3 mg/kg IV): 3.73%; AUC_%Extrap_obs, Mouse 2 ([1]; 3 mg/kg IV): 0.927%; AUC_%Extrap_obs, Mouse 3 ([1]; 3 mg/kg IV): 0.993%; AUClast/D, Mean ([1]; 3 mg/kg IV): 262; AUClast/D, Mouse 1 ([1]; 3 mg/kg IV): 261; AUClast/D, Mouse 2 ([1]; 3 mg/kg IV): 251; AUClast/D, Mouse 3 ([1]; 3 mg/kg IV): 274; C0, Mean ([1]; 3 mg/kg IV): 1959 ng/mL; C0, Mouse 1 ([1]; 3 mg/kg IV): 2033 ng/mL; C0, Mouse 2 ([1]; 3 mg/kg IV): 1738 ng/mL; C0, Mouse 3 ([1]; 3 mg/kg IV): 2107 ng/mL; Cl_obs, Mean ([1]; 3 mg/kg IV): 62.5 mL/min/kg; Cl_obs, Mouse 1 ([1]; 3 mg/kg IV): 61.4 mL/min/kg; Cl_obs, Mouse 2 ([1]; 3 mg/kg IV): 65.8 mL/min/kg; Cl_obs, Mouse 3 ([1]; 3 mg/kg IV): 60.3 mL/min/kg; Vss_obs, Mean ([1]; 3 mg/kg IV): 7.55 L/kg; Vss_obs, Mouse 1 ([1]; 3 mg/kg IV): 5.80 L/kg; Vss_obs, Mouse 2 ([1]; 3 mg/kg IV): 8.48 L/kg; Vss_obs, Mouse 3 ([1]; 3 mg/kg IV): 8.37 L/kg; Plasma concentration, Mouse 1 ([1]; 3 mg/kg IV, 24 h): BLOQ; concentration at 0.083 h ([1]; Mean, 3 mg/kg IV): 1170 ng/mL; concentration at 0.25 h ([1]; Mean, 3 mg/kg IV): 417 ng/mL; concentration at 0.5 h ([1]; Mean, 3 mg/kg IV): 281 ng/mL; concentration at 1 h ([1]; Mean, 3 mg/kg IV): 161 ng/mL; concentration at 2 h ([1]; Mean, 3 mg/kg IV): 65.7 ng/mL; concentration at 4 h ([1]; Mean, 3 mg/kg IV): 27.4 ng/mL; concentration at 8 h ([1]; Mean, 3 mg/kg IV): 8.4 ng/mL; concentration at 24 h ([1]; Mean, 3 mg/kg IV, 24 h): 1.11 ng/mL; concentration at 0.083 h ([1]; Mouse 1, 3 mg/kg IV): 1250 ng/mL; concentration at 0.25 h ([1]; Mouse 1, 3 mg/kg IV): 470 ng/mL; concentration at 0.5 h ([1]; Mouse 1, 3 mg/kg IV): 322 ng/mL; concentration at 1 h ([1]; Mouse 1, 3 mg/kg IV): 145 ng/mL; concentration at 2 h ([1]; Mouse 1, 3 mg/kg IV): 67.5 ng/mL; concentration at 4 h ([1]; Mouse 1, 3 mg/kg IV): 31.6 ng/mL; concentration at 8 h ([1]; Mouse 1, 3 mg/kg IV): 9.69 ng/mL; concentration at 0.083 h ([1]; Mouse 2, 3 mg/kg IV): 1070 ng/mL; concentration at 0.25 h ([1]; Mouse 2, 3 mg/kg IV): 403 ng/mL; concentration at 0.5 h ([1]; Mouse 2, 3 mg/kg IV): 255 ng/mL; concentration at 1 h ([1]; Mouse 2, 3 mg/kg IV): 152 ng/mL; concentration at 2 h ([1]; Mouse 2, 3 mg/kg IV): 66.4 ng/mL; concentration at 4 h ([1]; Mouse 2, 3 mg/kg IV): 28.5 ng/mL; concentration at 8 h ([1]; Mouse 2, 3 mg/kg IV): 6 ng/mL; concentration at 24 h ([1]; Mouse 2, 3 mg/kg IV, 24 h): 1.05 ng/mL; concentration at 0.083 h ([1]; Mouse 3, 3 mg/kg IV): 1190 ng/mL; concentration at 0.25 h ([1]; Mouse 3, 3 mg/kg IV): 377 ng/mL; concentration at 0.5 h ([1]; Mouse 3, 3 mg/kg IV): 267 ng/mL; concentration at 1 h ([1]; Mouse 3, 3 mg/kg IV): 187 ng/mL; concentration at 2 h ([1]; Mouse 3, 3 mg/kg IV): 63.3 ng/mL; concentration at 4 h ([1]; Mouse 3, 3 mg/kg IV): 22 ng/mL; concentration at 8 h ([1]; Mouse 3, 3 mg/kg IV): 9.51 ng/mL; concentration at 24 h ([1]; Mouse 3, 3 mg/kg IV, 24 h): 1.17 ng/mL; AUC(0-inf) ([1]; Mean, 3 mg/kg IV): 801 ng·h/mL; AUC(0-inf) ([1]; Mouse 1, 3 mg/kg IV): 814 ng·h/mL; AUC(0-inf) ([1]; Mouse 2, 3 mg/kg IV): 760 ng·h/mL; AUC(0-inf) ([1]; Mouse 3, 3 mg/kg IV): 829 ng·h/mL; AUC(0-t) ([1]; Mean, 3 mg/kg IV): 786 ng·h/mL; AUC(0-t) ([1]; Mouse 1, 3 mg/kg IV): 784 ng·h/mL; AUC(0-t) ([1]; Mouse 2, 3 mg/kg IV): 753 ng·h/mL; AUC(0-t) ([1]; Mouse 3, 3 mg/kg IV): 821 ng·h/mL; MRT inf ([1]; Mean, 3 mg/kg IV): 2.01 h; MRT inf ([1]; Mouse 1, 3 mg/kg IV): 1.57 h; MRT inf ([1]; Mouse 2, 3 mg/kg IV): 2.15 h; MRT inf ([1]; Mouse 3, 3 mg/kg IV): 2.31 h; half-life ([1]; T1/2, Mean, 3 mg/kg IV): 3.9 h; half-life ([1]; T1/2, Mouse 1, 3 mg/kg IV): 2.17 h; half-life ([1]; T1/2, Mouse 2, 3 mg/kg IV): 4.65 h; half-life ([1]; T1/2, Mouse 3, 3 mg/kg IV): 4.87 h; CC50 ([2]; CC50, Assay No. 1, Neutral Red (Cytopathic effect/Toxicity) line): > 100 µM; CC50 ([2]; CC50, Assay No. 1, Neutral Red (Toxicity), line of the virus yield reduction assay): > 100 µM; CC50 ([2]; CC50, Assay No. 2, Neutral Red (Cytopathic effect/Toxicity) line): 26 µM; CC50 ([2]; CC50, Assay No. 2, Neutral Red (Toxicity), line of the virus yield reduction assay): 26 µM; CC50 [3]: > 100 µM; CC50 (Vero 76): > 100 µM; SI90 ([4]; Assay No. 1): >10; SI90 ([4]; Assay No. 2): 14; EC90 ([4]; Huh-7, Assay No. 1): 10 µM; EC90 ([4]; Huh-7, Assay No. 2): 1.83 µM; SI90 (Zika MR766 [5]; Assay No. 3, Visual (Virus yield reduction)/Neutral Red (Toxicity)): >5.9; EC90 (Zika MR766 [5]; Zika virus): 17 µM; SI50 ([6]; Assay No. 1): >15; SI50 ([6]; Assay No. 2): 4.6; pEC50 ([6]; Huh-7, Assay No. 1): 5.17; pEC50 ([6]; Huh-7, Assay No. 2): 5.25; SI50 (Zika MR766 [7]; Assay No. 3, Neutral Red (Cytopathic effect/Toxicity)): >9.1; pEC50 (Zika MR766 [7]; Zika virus): 4.96
